Molecular target: PfHRPII HT-GFP (HT/RLLYE-GFP)
Type: binding, Plasmodium falciparum

PI(3)P
Kd: > 5 µM
